The values that follow come from patent US20100063089A1, “SUCCINATE SALT OF 2-((4-(1-METHYL-4-PYRIDIN-4-YL)-1H-PYRAZOL-3-YL)PHENOXY)METHYL)QUINOLINE” (PFIZER INC, priority 2006, published 2010).

Series [1] is described as follows: isothermal moisture sorption test. Conditions: at 90±2% relative humidity; isothermal 25.1±0.1° C.; conducted from approximately 1% to 90% (±2%) humidity. It counts as physicochemical. Here is the method:
In another embodiment, the succinate salt increases in weight by less than 0.5% at 90±2% relative humidity in an isothermal (25.1±0.1° C.) moisture sorption test conducted from approximately 1% to 90% (±2%) humidity.

Series [2] can be described thus: solid-state properties for formulation (deliquescence, hygroscopicity). Conditions: solid salt. The series is classed as physicochemical.

Consider `Cn1cc(-c2ccncc2)c(-c2ccc(OCc3ccc4ccccc4n3)cc2)n1.O=C(O)CCC(=O)O` [succinate salt, succinate salt of 2-((4-(1-methyl-4-(pyridin-4-yl)-1H-pyrazol-3-yl)phenoxy)methyl)quinoline], for which, in series [1], the “increase in weight in moisture sorption test” value is listed as “less than 0.5%”. Moreover, in series [2], the deliquescence result is listed as “not deliquescent” and the hygroscopicity entry is “non-hygroscopic”.
